Assay results: patent US20110008471A1, “SYNERGISTIC ANTIPARASITIC COMPOSITIONS AND SCREENING METHODS” (TyraTech, Inc., priority 2007, published 2011)

How the values were obtained:
Tyramine receptor (TyrR) [1] = biological target: T1, Tyramine receptor (TyrR) (Drosophila melanogaster, UniProt P22270); assay: Intracellular cAMP level in cells expressing TyrR; type: cell-based
T1 construct: expressed in transfected cells; host or cells: model cells in culture
T1 sequence (P22270 27-601): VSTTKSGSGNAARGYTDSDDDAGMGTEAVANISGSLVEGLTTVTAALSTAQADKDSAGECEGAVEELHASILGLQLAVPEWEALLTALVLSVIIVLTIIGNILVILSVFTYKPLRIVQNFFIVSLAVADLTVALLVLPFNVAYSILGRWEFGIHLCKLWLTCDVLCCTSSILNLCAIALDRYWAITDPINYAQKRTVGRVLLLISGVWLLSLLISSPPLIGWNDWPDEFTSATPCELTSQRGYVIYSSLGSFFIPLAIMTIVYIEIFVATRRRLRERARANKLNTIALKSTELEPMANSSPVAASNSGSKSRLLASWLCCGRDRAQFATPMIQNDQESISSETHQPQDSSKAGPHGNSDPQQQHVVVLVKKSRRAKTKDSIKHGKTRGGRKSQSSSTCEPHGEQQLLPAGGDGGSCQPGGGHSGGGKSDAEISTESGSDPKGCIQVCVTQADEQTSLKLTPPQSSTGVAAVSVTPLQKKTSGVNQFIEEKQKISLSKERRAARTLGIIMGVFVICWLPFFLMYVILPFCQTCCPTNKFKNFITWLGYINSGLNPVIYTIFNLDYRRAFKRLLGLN
Description: (§1) In the present Example, the genes encoding TyrR were incorporated into model cells in culture that mimic receptors in insects. The screening process uses the cultured cells in combination with [Ca^2+]i and [cAMP]i measuring assays to quantitatively determine effectiveness of test compound to treat parasitic infections. The screening process allows for identification of compounds that produce highly efficacious anti-parasitic compositions.
(§2) The assay steps are as follows. A cell expressing a tyramine receptor is contacted with a test compound and the receptor binding affinity of the test compound is measured. Cells which can be used include, for example, HEK293 cells, COS cells, Drosophila Schneider or S2 cells, SF9, SF21, T.ni cells, or the like. cAMP and/or Ca^2+ levels within the cell are also monitored and any changes from contacting the test compound with the cell are noted for each compound tested. […] A composition for use in treating a parasitic formulation can then be selected that includes a plurality of the identified compounds. In particular, the composition can comprise at least one compound identified as having a high receptor binding affinity for the tyramine receptor as well as an ability to effect change in cAMP and/or Ca^2+ levels within the cell and at least one additional compound identified as having a low receptor binding affinity for the tyramine receptor as well as an ability to effect change in cAMP and/or Ca^2+ levels within the cell.

Tyramine receptor (TyrR) [2] = biological target: T1, Tyramine receptor (TyrR); assay: Intracellular Ca2+ level in cells expressing TyrR; type: cell-based
Tyramine receptor (TyrR) [3] = biological target: T1, Tyramine receptor (TyrR); assay: Tyramine receptor binding affinity in cells expressing TyrR
Protocol: In some embodiments, a method of selecting a composition for use in treating a parasitic infection includes the following. A cell expressing a tyramine receptor is provided and is contacted with test compounds. The receptor binding affinity of the compounds is measured. At least one parameter selected from the following parameters is measured: intracellular cAMP level, and intracellular Ca^2+ level. A first compound for the composition is identified, which is capable of altering at least one of the parameters, and which has a high receptor binding affinity for the tyramine receptor; and a second compound for the composition is identified, which is capable of altering at least one of the parameters, and which has a low receptor binding affinity for the tyramine receptor. A composition is selected that includes the first and second compounds.
As used herein, the term “receptor binding affinity” refers to an interaction between a composition or component, e.g., compound, and a receptor binding site. The interaction between a composition or component, and the receptor binding site, can be identified as specific or non-specific. In some embodiments, the specificity of an interaction between a composition or component, and a TyrR binding site, can be determined in the following manner. A wild type fly (Drosophila melanogaster) and a mutant fly are provided, where the mutant fly lacks a TyrR. The wild type and mutant flies are exposed to a composition or component of interest. […] If the exposure negatively affects the wild type fly and the mutant fly, then the treatment with the composition or component of interest can be said to be non-specific for the TyrR.
A “high receptor binding affinity” can be a specific interaction between a composition or component, and the receptor binding site.
A “low receptor binding affinity” can be a non-specific interaction between a composition or component, and the receptor binding site. […] In some embodiments, a low receptor binding affinity is found when the effective concentration at which tyramine binding is inhibited by 50% (EC50) is greater than about 500 μM, 625 μM, 750 μM, 875 μM, 1000 μM, 1125 μM, or 1250 μM.
A receptor gene encoding the Tyramine receptor (TyrR) has been isolated from the American cockroach, fruit fly, mosquito, and other organisms. The present subject matter provides methods of utilizing the TyrR protein expressed in cells to screen for compounds useful for treating parasitic infections.
as §1, §2

H. nana = assay: Anti-parasitic effect against H. nana in vivo in infected Swiss albino mice (egg count, cure rate); set-up: species or system Hymenolepsis nana; conditions: for Egg Count (X ± SD), Pre Treatment (Base Line Data): infected mice, before 400 mg/kg oral daily for 5 days;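 as to all read-outs here: fecal egg counts per mouse in groups of 15, controls got soybean oil vehicle alone, cure judged 3 days after final dose by egg reduction and no adult intestinal worms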
[4] = 100 mg/kg oral daily for 5 days
[5] = Tested dose 100 mg/kg b.w. orally daily for 5 successive days
[6] = 400 mg/kg oral daily for 5 days
[7] = 3 Days after last dose, 400 mg/kg oral daily for 5 days

| SMILES | Affects Intracellular cAMP (Yes or No) (Tyramine receptor (TyrR) [1]) | Affects Intracellular Ca^2+ (Yes or No) (Tyramine receptor (TyrR) [2]) | Tyramine Receptor Binding Affinity (High or Low) (Tyramine receptor (TyrR) [3]) | other results |
| --- | --- | --- | --- | --- |
| CCC(C)(O)CCCC(C)C (stereo not shown) [tetrahydrolinalool] | Yes | Yes | High | – |
| CCC(=O)OCCc1ccccc1 [phenethyl proprionate] | Yes | No | Low | – |
| CCCCCCCCCCCCOS(=O)(=O)[O-].[Na+] [sodium lauryl sulfate] | No | No | Low | – |
| C=CCc1ccc(O)c(OC)c1 [Eugenol] | No | Yes | Low | – |
| CC1=CCC2CC1C2(C)C (stereo not drawn) [α-pinene] | No | No | Low | Cure rate (%) (H. nana; [4]): 25.0%; Cure rate (%) (H. nana; [5]): 25.0% |
| CC12CCC(CC1)C(C)(C)O2 [cineol] | Yes | Yes | Low | – |
| C/C=C/c1ccc(OC)cc1 [anethole] | Yes | Yes | Low | – |
| CC(C)=CCC/C(C)=C/CO [Rx5, geraniol] | – | – | – | Egg Count (X ± SD), During Treatment 1st Day (H. nana; [6]): 14 ± 13.9; Egg Count (X ± SD), During Treatment 2nd Day (H. nana; [6]): 1.4 ± 2.1; Egg Count (X ± SD), During Treatment 3rd Day (H. nana; [6]): 4.1 ± 9.6; Egg Count (X ± SD), During Treatment 4th Day (H. nana; [6]): 2.6 ± 7.4; Egg Count (X ± SD), During Treatment 5th Day (H. nana; [6]): 2.3 ± 3.6; Egg Count (X ± SD), Post treatment 2 Days after last dose (H. nana; [6]): 0.5 ± 0.9; Cure rate (%) (H. nana; [7]): 66.6%; Positiveity rate (%) (H. nana; [7]): 33.4%; cure rate (H. nana; H. nana infected mice, 400 mg/kg body weight orally daily for 5 successive days, 3rd day after last dose): 66.6%; Egg Count (X ± SD), Pre Treatment (Base Line Data) (H. nana): 3 ± 1; Worms absent or dead in mice (H. nana; treated for 5 consecutive days, 400 mg/kg, post treatment dissection): 67% |
| Cc1ccc(C(C)C)cc1O [Rx4, carvacrol] | – | – | – | Egg Count (X ± SD), During Treatment 1st Day (H. nana; [6]): 5 ± 0.6; Egg Count (X ± SD), During Treatment 2nd Day (H. nana; [6]): 2.2 ± 3.4; Egg Count (X ± SD), During Treatment 3rd Day (H. nana; [6]): 1 ± 1.9; Egg Count (X ± SD), During Treatment 4th Day (H. nana; [6]): 0.9 ± 1.2; Egg Count (X ± SD), During Treatment 5th Day (H. nana; [6]): 2 ± 2; Egg Count (X ± SD), Post treatment 2 Days after last dose (H. nana; [6]): 1.3 ± 1.1; Cure rate (%) (H. nana; [7]): 28.6%; Positiveity rate (%) (H. nana; [7]): 71.4%; Egg Count (X ± SD), Pre Treatment (Base Line Data) (H. nana): 3 ± 1 |
| OCc1ccccc1 [benzyl alcohol] | Yes | No | Low | – |
| C=C(C)[C@H]1CC=C(C)CC1 [d-limonene] | – | Yes | – | – |
| Cc1ccc(C(C)C)cc1 [Rx10, p-cymene] | Yes | Yes | Low | Cure rate (%) (H. nana; [4]): 13.3%; Cure rate (%) (H. nana; [5]): 13.3%; tyramine receptor binding affinity (Tyramine receptor (TyrR) [3]): low (a low receptor binding affinity is found when the equilibrium dissociation constant (Kd) is greater than about 100 nM) |
| Cc1ccc(C(C)C)c(O)c1 [Rx11, thymol] | No | Yes | High | Cure rate (%) (H. nana; [4]): 33.3%; Cure rate (%) (H. nana; [5]): 33.3% |
| COc1cc(C=O)ccc1O [vanillin] | No | – | – | – |
| CC12CCC(CC1)C(C)(C)O2 [Rx6, cineol] | – | – | – | Egg Count (X ± SD), During Treatment 1st Day (H. nana; [6]): 5 ± 9.5; Egg Count (X ± SD), During Treatment 2nd Day (H. nana; [6]): 3.8 ± 14.3; Egg Count (X ± SD), During Treatment 3rd Day (H. nana; [6]): 1 ± 1.2; Egg Count (X ± SD), During Treatment 4th Day (H. nana; [6]): 1.8 ± 1.7; Egg Count (X ± SD), During Treatment 5th Day (H. nana; [6]): 1.6 ± 1.5; Egg Count (X ± SD), Post treatment 2 Days after last dose (H. nana; [6]): 2.5 ± 3.5; Cure rate (%) (H. nana; [7]): 54.5%; Positiveity rate (%) (H. nana; [7]): 45.5%; Egg Count (X ± SD), Pre Treatment (Base Line Data) (H. nana): 3.1 ± 1.2 |
| OCC=Cc1ccccc1 [cinnamyl alcohol] | No | Yes | Low | – |
| CC(C)=CCC/C(C)=C/CO [geraniol] | Yes | Yes | High | – |
| C=CC(C)(O)CCC=C(C)C (stereo not shown) [linalool] | No | Yes | High | Cure rate (%) (H. nana; [4]): 23.3%; Cure rate (%) (H. nana; [5]): 23.3% |
